# ChEMBL document CHEMBL1201862, “PubChem BioAssay data set” (2004)
# Active and inactive are the calls of the source.
# Tests used:
# [1] = target: T1, Neuropeptide Y receptor type 2 (Homo sapiens, UniProt P49146); experiment: IC50 for human NPY-Y2 blockade – cell-based, counter-screen for NPY-Y1 antagonist project, dose response (AID 1278); format: functional
# T1 sequence (P49146 whole entry): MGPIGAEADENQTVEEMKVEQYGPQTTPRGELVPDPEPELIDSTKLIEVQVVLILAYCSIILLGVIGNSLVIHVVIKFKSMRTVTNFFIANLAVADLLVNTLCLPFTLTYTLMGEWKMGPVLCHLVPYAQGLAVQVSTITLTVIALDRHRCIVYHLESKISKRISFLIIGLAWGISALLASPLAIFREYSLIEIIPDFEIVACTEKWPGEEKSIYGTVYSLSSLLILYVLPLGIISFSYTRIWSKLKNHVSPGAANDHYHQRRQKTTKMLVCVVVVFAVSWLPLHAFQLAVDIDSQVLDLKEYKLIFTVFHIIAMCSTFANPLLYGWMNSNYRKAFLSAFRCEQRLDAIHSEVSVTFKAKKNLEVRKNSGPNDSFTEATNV
# [2] = target: T2, Neuropeptide Y receptor type 1 (Homo sapiens, UniProt P25929); experiment: IC50 of human NPY-Y1 blockers – cell-based, dose response (AID 1277); format: functional
# T2 sequence (P25929 whole entry): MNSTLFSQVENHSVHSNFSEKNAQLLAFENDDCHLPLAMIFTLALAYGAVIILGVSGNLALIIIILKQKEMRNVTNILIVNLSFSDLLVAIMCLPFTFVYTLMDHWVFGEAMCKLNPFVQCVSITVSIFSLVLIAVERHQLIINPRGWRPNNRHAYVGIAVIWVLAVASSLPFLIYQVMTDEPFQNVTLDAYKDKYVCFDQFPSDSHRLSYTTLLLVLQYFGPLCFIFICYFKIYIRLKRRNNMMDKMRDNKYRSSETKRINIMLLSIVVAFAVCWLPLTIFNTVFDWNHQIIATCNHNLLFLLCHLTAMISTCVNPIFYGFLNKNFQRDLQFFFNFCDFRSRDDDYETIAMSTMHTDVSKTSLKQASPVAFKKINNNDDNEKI
# [3] = mitochondrial function rescue without frataxin homolog – Friedreich's ataxia, plus single-dose screen, dose response (AID 1465); format: functional;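 further: yeast depleted of Yfh1p frataxin homolog grown on glycerol needing respiration; WST-1 tetrazolium dye reduction as measure of cellular dehydrogenase metabolic activity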
# HEK293 = experiment: Fluorescence-based counterscreen for potentiators or agonists of NPY-Y2: cell-based high-throughput dose response assay to identify inhibitors of cyclic nucleotide gated ion channel (CNGC) activity. In this assay, the parental HEK293 cell line transfected with a cyclic-nucleotide gated ion channel (CNGC)-based cAMP sensor is used to measure inhibition of isoproterenol-induced CNGC activity by test compound.; format: functional; details: Homo sapiens;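 further: stimulus is 1 µM isoproterenol at EC100 plus PDE inhibitor Ro 20-1724 at 25 µM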
# [4] = target: T1, Neuropeptide Y receptor type 2; experiment: Fluorescence-based cell-based high-throughput dose response assay for agonists of NPY-Y2. [Related pubchem assays: 1703 (Screening assay (CNGC inhibitors).), 1359 (Screening assay (NPY-Y2 potentiators or agonists).), 1304 (Screening assay (NPY-Y1 potentiators or agonists).), 1710 (Screening assay (NPY-Y2 agonists).), 1791 (Summary AID.)]; format: functional
# [5] = target: T2, Neuropeptide Y receptor type 1; experiment: Fluorescence-based counterscreen for agonists of NPY-Y2: cell-based high-throughput dose response assay for agonists of NPY-Y1.; format: functional
# [6] = Luminescent dose response cell-based high throughput screening assay for inhibitors of the Janus kinase 2 mutant JAK2V617F. [Related pubchem assays: 1446 (Primary screen.), 1521 (Confirmation assay.), 1486 (Counter screen.)]; format: functional
# [7] = NIH-3T3 fibroblast cytotoxicity, dose response, cytotoxicity control, cell-based, fluorescence, Alamar Blue, secondary assay (AID 2327); format: functional;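 further: NIH-3T3 mouse fibroblasts cultured with fluconazole at 8 µg/mL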
# [8] = target: Sphingosine 1-phosphate receptor 2 (Homo sapiens, UniProt O95136); experiment: Dose Response Cell Based Assay for Antagonists of the S1P2 Receptor. [Related pubchem assays: 856, 736 ]; format: functional
# HeLa = experiment: Cytotoxicity counterscreen assay for transcriptional activators of heat shock protein 70 (Hsp70). [Related pubchem assays: 1203, 1252 ]; format: functional; details: Homo sapiens;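 further: cells exposed to compound for 16 hours before readout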
# [9] = fluconazole-exposed Candida albicans growth modulators – fluorescence, retest, confirmation (AID 2467); format: functional, cell-based
# [10] = Trypanosoma cruzi growth suppression in host cells – NIH3T3 host cells, beta-gal luminescence, confirmation (AID 2044); format: functional, cell-based;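 further: intracellular parasites grown in NIH/3T3 mouse fibroblasts as host cells; luminescent beta-galactosidase reporter signal from transgenic T. cruzi replicating inside host cells; inhibitors lower the luminescence signal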
# [11] = NIH3T3 cell viability loss – ATP luminescence, mouse fibroblasts, counter-screen, dose response (AID 2010); format: functional, cell-based;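 further: cells exposed to compound for about 90 hours before reading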
# [12] = target: T3, Replicative DNA helicase DnaB (Mycobacterium tuberculosis, UniProt P9WMR3); experiment: DnaB intein splicing inhibitors, dose response, biochemical, cell-free fluorescence (AID 449749); format: functional
# T3 sequence (P9WMR3 whole entry): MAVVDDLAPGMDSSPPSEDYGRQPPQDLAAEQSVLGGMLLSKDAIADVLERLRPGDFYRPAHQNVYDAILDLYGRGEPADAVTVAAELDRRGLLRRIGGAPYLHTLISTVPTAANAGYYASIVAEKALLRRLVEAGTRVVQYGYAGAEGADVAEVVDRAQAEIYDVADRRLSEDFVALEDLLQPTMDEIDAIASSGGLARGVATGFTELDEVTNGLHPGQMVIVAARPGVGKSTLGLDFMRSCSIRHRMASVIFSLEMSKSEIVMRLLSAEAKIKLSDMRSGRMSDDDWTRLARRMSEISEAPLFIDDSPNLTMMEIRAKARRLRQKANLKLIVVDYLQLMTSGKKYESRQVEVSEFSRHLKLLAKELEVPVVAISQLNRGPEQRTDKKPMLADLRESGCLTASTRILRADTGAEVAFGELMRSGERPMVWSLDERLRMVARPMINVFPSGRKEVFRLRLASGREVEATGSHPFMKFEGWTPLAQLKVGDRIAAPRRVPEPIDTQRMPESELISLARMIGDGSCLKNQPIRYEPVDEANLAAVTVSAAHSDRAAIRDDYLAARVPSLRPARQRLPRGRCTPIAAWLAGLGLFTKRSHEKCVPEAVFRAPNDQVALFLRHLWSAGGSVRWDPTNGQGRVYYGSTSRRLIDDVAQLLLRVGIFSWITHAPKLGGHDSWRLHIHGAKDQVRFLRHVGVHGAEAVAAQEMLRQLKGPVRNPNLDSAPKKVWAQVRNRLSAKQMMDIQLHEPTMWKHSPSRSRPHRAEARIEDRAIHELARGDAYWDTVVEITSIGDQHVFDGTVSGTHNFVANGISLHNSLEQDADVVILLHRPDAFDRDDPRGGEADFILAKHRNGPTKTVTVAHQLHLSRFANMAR
# Protein RecA = target: T4, Protein RecA (Mycobacterium tuberculosis, UniProt P9WHJ3); experiment: Fluorescence Cell-Free Homogeneous Dose Retest to Identify Inhibitors of RecA-Intein Splicing Activity. [Related pubchem assays (depositor defined):AID2097, AID2223, AID489010, AID492950]; format: functional
# T4 sequence (P9WHJ3 whole entry): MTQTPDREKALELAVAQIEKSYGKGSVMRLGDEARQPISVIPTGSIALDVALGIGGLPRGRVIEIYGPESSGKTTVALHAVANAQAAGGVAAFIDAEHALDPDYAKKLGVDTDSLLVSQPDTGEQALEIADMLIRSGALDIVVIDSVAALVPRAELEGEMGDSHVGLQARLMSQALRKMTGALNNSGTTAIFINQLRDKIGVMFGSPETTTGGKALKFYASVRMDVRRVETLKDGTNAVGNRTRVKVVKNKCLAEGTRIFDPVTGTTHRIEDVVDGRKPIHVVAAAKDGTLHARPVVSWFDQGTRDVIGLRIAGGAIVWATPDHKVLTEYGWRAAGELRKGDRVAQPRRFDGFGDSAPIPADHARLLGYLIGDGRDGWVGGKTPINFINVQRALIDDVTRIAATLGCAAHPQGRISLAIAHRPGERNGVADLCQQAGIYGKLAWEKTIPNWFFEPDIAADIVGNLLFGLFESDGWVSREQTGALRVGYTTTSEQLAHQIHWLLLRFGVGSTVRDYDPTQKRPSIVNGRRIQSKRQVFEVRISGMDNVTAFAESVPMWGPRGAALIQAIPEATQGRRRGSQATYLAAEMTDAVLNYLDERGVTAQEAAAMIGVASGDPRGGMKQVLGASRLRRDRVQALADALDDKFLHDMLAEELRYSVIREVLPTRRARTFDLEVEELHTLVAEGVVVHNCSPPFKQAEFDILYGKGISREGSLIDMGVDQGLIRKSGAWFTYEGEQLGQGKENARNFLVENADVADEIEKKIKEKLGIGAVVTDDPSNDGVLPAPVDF
# INS1 = experiment: INS-1E survival protection against cytokine death – cell-based, luminescence, retest, dose response (AID 449756); format: functional; details: Rattus norvegicus;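 further: cell death triggered by IL-1 beta plus TNF-alpha plus IFN-gamma mixture; protective hits raise ATP signal compared with cytokine alone wells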
# BJ [13] = experiment: BJ-TERT fibroblast viability loss – cell-based, RAS-independent, luminescence, dose response (AID 1933); format: functional; details: Homo sapiens
# BJ [14] = experiment: cells; format: functional, cell-based; details: Homo sapiens
# [15] = Luminescence-based counterscreen assay for KLF5 inhibitors: dose response cell-based high throughput screening assay to identify cytotoxic compounds using the IEC-6 intestinal epithelial cell line. [Related pubchem assays: 1700 (Primary screen.), 1834 (Confirmation screen.), 1858 (Summary AID.), 1905 (Counterscreen.)]; format: functional
# BJ [16] = experiment: BJ-TERT-LT-ST fibroblast viability loss – cell-based, RAS-independent, luminescence, dose response (AID 1935); format: functional; details: Homo sapiens;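 further: BJ fibroblasts immortalized with TERT plus LT and ST oncogenes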
# [17] = DRD fibroblast viability loss – cell-based, non-viral oncogenic, luminescence, dose response (AID 1934); format: functional; details: Homo sapiens
# [18] = target: Dual specificity tyrosine-phosphorylation-regulated kinase 1A (Rattus norvegicus, UniProt Q63470); format: biochemical, Homo sapiens
# [19] = target: Induced myeloid leukemia cell differentiation protein Mcl-1 (Homo sapiens, UniProt Q07820); experiment: blockers of MCL1 binding to BIM peptide – biochemical, fluorescence polarization, BIM-BH3 peptide, 1536-well, dose response (AID 2217)
# Bcl-2-like protein 1 = Bcl-2-like protein 1 (Homo sapiens, UniProt Q07817); experiment: blockers of BCLXL peptide binding – biochemical, fluorescence polarization, 1536-well, selectivity assay for MCL1 inhibitor project, dose response (AID 2218)
# [20] = target: Tyrosine-protein phosphatase non-receptor type 11 (Homo sapiens, UniProt Q06124); experiment: PTPN11 enzyme inhibitors – biochemical, selectivity assay for STEP inhibitor project, dose response (AID 602367); format: functional; details: read-out: IC50_Mean
# [21] = target: Tyrosine-protein phosphatase non-receptor type 5 (Homo sapiens, UniProt P54829); experiment: PTPN5 enzyme inhibition – biochemical, fluorescence intensity, uHTS hits, confirmation (AID 602372); format: functional; details: read-out: IC50_Mean
# [22] = target: Dual specificity protein phosphatase 3 (Homo sapiens, UniProt P51452); experiment: VHR phosphatase inhibition, dose response, selectivity assay for STEP inhibitor project, biochemical (AID 602374); format: functional; details: read-out: IC50_Mean
# [23] = target: T5, Small ubiquitin-related modifier 1 (Homo sapiens, UniProt P63165); experiment: SUMO1 protein interaction blockers, potency – biochemical, fluorescence polarization, uHTS hits, dose response (AID 624382); format: functional; details: read-out: IC50_Mean
# [24] = target: T5, Small ubiquitin-related modifier 1; experiment: SUMO1 protein-protein binding blockers, potency – biochemical, FRET, dose response (AID 624383); format: functional; details: read-out: IC50_Mean
# T5 sequence (P63165 whole entry): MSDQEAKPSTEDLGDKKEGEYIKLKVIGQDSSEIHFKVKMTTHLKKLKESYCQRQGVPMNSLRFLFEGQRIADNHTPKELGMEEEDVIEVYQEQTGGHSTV
# Sequence of Tyrosine-protein phosphatase non-receptor type 5 (P54829 whole entry): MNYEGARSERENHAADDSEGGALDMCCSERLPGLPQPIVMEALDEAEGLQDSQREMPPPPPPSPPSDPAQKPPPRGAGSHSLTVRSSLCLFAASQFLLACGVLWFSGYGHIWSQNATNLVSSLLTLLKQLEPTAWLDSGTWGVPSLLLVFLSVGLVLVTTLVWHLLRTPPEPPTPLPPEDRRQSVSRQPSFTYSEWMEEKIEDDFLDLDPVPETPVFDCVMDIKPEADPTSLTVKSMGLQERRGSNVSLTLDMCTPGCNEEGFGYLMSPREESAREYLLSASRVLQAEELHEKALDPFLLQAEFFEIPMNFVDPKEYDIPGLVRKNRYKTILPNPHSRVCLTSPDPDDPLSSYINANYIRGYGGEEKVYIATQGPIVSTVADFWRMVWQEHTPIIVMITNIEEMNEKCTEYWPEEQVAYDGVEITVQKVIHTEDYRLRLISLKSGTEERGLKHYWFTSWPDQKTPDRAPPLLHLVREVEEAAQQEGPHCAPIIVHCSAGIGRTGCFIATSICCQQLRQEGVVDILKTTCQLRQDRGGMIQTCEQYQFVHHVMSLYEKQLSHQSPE
# Sequence of Bcl-2-like protein 1 (Q07817 whole entry): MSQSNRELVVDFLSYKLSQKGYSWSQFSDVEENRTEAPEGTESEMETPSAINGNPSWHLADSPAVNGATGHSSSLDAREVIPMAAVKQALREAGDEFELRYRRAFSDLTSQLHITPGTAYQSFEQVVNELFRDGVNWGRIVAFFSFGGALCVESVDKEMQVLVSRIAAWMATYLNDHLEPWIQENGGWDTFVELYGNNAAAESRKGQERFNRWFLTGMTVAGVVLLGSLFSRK
# Sequence of Tyrosine-protein phosphatase non-receptor type 11 (Q06124 whole entry): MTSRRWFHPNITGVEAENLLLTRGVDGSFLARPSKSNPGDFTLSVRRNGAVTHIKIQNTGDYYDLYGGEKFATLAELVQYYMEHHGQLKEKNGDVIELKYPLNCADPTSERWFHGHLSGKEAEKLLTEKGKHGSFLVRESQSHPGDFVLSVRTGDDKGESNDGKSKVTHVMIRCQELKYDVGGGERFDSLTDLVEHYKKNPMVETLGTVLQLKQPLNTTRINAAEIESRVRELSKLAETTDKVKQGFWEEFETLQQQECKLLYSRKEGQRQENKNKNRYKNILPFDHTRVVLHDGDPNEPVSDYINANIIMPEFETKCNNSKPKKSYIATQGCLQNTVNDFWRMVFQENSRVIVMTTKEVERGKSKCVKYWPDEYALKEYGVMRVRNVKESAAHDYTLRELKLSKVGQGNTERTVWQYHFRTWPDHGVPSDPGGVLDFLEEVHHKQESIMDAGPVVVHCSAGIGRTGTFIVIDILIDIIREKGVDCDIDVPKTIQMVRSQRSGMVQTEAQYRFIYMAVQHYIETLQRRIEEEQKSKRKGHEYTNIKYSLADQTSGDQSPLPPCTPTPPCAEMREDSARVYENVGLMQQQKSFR
# Sequence of Sphingosine 1-phosphate receptor 2 (O95136 whole entry): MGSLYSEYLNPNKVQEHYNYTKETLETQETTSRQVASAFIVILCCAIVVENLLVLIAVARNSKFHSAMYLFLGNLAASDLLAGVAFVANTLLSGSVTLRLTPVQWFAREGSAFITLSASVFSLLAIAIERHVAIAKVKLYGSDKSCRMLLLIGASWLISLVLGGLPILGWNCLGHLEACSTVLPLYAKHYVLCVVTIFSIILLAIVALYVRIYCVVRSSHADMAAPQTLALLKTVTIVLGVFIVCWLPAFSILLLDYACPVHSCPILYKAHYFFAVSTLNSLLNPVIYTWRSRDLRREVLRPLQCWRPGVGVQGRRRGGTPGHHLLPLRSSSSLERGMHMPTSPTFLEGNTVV
# Sequence of Dual specificity protein phosphatase 3 (P51452 whole entry): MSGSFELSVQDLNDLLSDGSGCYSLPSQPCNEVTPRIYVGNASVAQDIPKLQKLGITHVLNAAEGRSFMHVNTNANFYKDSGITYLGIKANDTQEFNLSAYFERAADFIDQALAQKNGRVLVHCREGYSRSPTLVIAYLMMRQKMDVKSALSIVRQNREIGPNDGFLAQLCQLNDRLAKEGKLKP
# Sequence of Induced myeloid leukemia cell differentiation protein Mcl-1 (Q07820 whole entry): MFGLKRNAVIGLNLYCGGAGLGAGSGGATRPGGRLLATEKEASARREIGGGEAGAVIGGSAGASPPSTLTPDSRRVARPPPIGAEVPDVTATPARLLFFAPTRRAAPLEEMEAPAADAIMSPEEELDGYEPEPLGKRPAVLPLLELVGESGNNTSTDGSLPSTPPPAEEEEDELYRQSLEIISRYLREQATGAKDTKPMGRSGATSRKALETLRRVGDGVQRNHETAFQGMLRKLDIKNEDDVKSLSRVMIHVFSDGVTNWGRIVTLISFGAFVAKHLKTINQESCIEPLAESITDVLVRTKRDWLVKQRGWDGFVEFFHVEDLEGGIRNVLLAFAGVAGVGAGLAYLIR
smiles,measurement,setting,value
CCc1cccc(CC)c1NC(=O)C(NS(=O)(=O)c1cccs1)c1ccccc1 (centres undefined),IC50,[1],> 35 µM (not active)
same,IC50,[2],> 35 µM (not active)
COc1ccc2ccccc2c1C(=O)/C=C\c1ccoc1,EC50,[3],> 100 µM (active)
COc1ccc(N2CCN(CC(O)COc3ccccc3[N+](=O)[O-])CC2)cc1 (centres undefined),EC50,HEK293,2.43 µM (active)
same,EC50,[4],12.3 µM (not active)
same,EC50,[5],9.49 µM (active)
O=C(OCn1ncc(Cl)c(Cl)c1=O)c1ccc(F)cc1,IC50,[6],0.351 µM (active)
same,EC50,[7],1.85 µM (inconclusive)
same,IC50,[8],3.76 µM (active)
same,CC50,HeLa,21.7 µM (not active)
same,EC50,[9],> 38 µM (not active)
same,EC50,[10],1.16 µM (active)
same,EC50,[11],1.04 µM (active)
same,AC50,[12],5.07 µM (active)
same,EC50,Protein RecA,0.938 µM (active)
same,AC50,INS1,7.34 µM (active)
COc1ccc2[nH]c(C(=O)N/N=C/c3ccc(OC)c(O)c3)cc2c1,EC50,BJ [13],1.89 µM (active)
same,EC50,BJ [14],59.5 µM (inconclusive)
same,IC50,[15],20.4 µM (not active)
same,EC50,BJ [16],50.5 µM (inconclusive)
same,EC50,[17],41.7 µM (inconclusive)
same,AC50,[18],1.04 µM (active)
O=C(N/N=C/c1ccncc1)c1cccc(S(=O)(=O)Nc2ccc(Cl)cc2)c1,IC50,[19],11.3 µM (not active)
same,IC50,Bcl-2-like protein 1,> 109 µM (not active)
same,IC50,[20],2.6 µM (active)
same,IC50,[21],14.7 µM (active)
same,IC50,[22],2.87 µM (active)
same,IC50,[23],> 66.6 µM (inactive)
same,IC50,[24],10.3 µM (active)
